From PMC11613490, “Cyclophostin and Cyclipostins analogues counteract macrolide-induced resistance mediated by erm(41) in Mycobacterium abscessus” (Journal of Biomedical Science, 2024) come the findings set out here.

Converted amounts (≈) assume the structure as drawn. Where two headings read alike, the source gives them in different places.

Experiment in all cases: microbe, parasite or virus in culture
Test [1] concerns M. abscessus S (control, untreated). More on the design: species or system Mycobacterium abscessus S; broth microdilution / checkerboard MIC in 7H9-S OADC, OD600, more than 90% growth inhibition. Conditions: Mycobacteroides abscessus, read-out: MIC, single drug.
Test [2] relates to M. abscessus S reference strain (Control, untreated). Conditions: Mycobacteroides abscessus, read-out: MIC (0 µg/mL CyC, alone).
Description: Synergistic activities were tested in 96-well microplates by the checkerboard assay in Middlebrook 7H9-S^OADC broth and using microdilution method [47]. MIC of the antibiotics were determined in 96 well flat-bottom Nunclon Delta Surface microplates with lid (Thermo-Fisher Scientific, ref. 167008) using optical density to assess growth. Log-phase bacteria were diluted to a cell density of 5 × 10^6 cells/mL in 7H9-S^OADC medium. Then, 100 µL of this bacterial suspension (5 × 10^5 cells final per well) was added to each well containing 100 µL of the 7H9-S^OADC medium, serial two-fold dilutions of the selected antibiotics or controls to a final volume of 200 µL. In addition, wells containing 200 µL of 7H9-S^OADC medium only were used as sterility/background controls, whereas wells containing 100 µg/mL kanamycin (Euromedex) was used as positive control for growth inhibition. Plates were incubated at 37 °C for 4 to 5 days. The optical density (OD) at 600 nm was quantified using a Tecan Spark 10 M™ multimode microplate reader (Tecan Group Ltd., France). Relative growth units were defined as: RGU% = (test well OD600nm/mean OD600nm of growth control wells) ×100. For each condition, three biological replicates were performed. The MIC of each drug was defined as the lowest drug concentration that inhibited more than 90% of the bacterial growth.
The test system is the same in test [3]. Also noted: species or system Mycobacterium abscessus; broth microdilution in 7H9-OADC, OD600 growth, MIC defined as 90% growth inhibition. The following applies: Mycobacteroides abscessus, single drug, read-out: MIC (0 µg/mL CyC, alone).

With `CC[C@H]1OC(=O)[C@H](C)[C@@H](O[C@H]2C[C@@](C)(OC)[C@@H](O)[C@H](C)O2)[C@H](C)[C@@H](O[C@@H]2O[C@H](C)C[C@H](N(C)C)[C@H]2O)[C@](C)(O)C[C@@H](C)CN(C)[C@H](C)[C@@H](O)[C@]1(C)O` [AZM, azithromycin], the MIC in test [1] turned out to be 6 µg/mL.
Still for that read-out and setting: as for `CC[C@H]1OC(=O)[C@H](C)[C@@H](O[C@H]2C[C@@](C)(OC)[C@@H](O)[C@H](C)O2)[C@H](C)[C@@H](O[C@@H]2O[C@H](C)C[C@H](N(C)C)[C@H]2O)[C@](C)(OC)C[C@@H](C)C(=O)[C@H](C)[C@@H](O)[C@]1(C)O` [CLR, clarithromycin], the figure is 0.6 µg/mL.
Consider `CCCCCCCCCCCCCCCCOP1(=O)OCCC(C(=O)OC)=C(C)O1` (stereo not shown) [CyC17], for which, in test [2], the MIC is 3.2 µg/mL (≈ 7.17 µM).
On to `CCCCCCCCCCCOP1(=O)OCCC(C(=O)OC)=C(C)O1` (stereo not shown) [CyC31], for which the MIC in test [3] turned out to be 20 µg/mL (≈ 53.1 µM).
